Assays:
Type in all cases: in vivo, human
[1] = test system: adult subjects with schizophrenia; assay: CGI responder rate, Clinical Study Two; details: bifeprunox 40 mg; LOCF
Procedure: Notable differences were also observed between the 30 mg bifeprunox group and placebo for the change from baseline to endpoint in PANSS general psychopathology subscale score, BPRS total score, BPRS psychosis cluster score, PANSS responder rate, and CGI-I responder rate. In the study, a PANSS responder refers to a subject whose PANSS total score decreased by 20% or more from baseline to endpoint. A CGI-I responder refers to a subject who was categorized as “very much improved” or “much improved” in the CGI Global Improvement scale at endpoint.
Pharmacokinetic (PK) data of bifeprunox in schizophrenic subjects were also assessed and are presented in a separate report (combined with data from study S1543003).
(§1) Subjects who completed this study had the option to continue in the long-term. […] Risperidone-treated subjects were titrated from 2 mg to 6 mg daily over a three-day period and were subsequently maintained at 6 mg/day for the remainder of the treatment period. […] Blood samples were also obtained at Screening/Baseline, Week 3, and Week 6 for clinical laboratory assessments.
CLINICAL STUDY TWO: A CGI responder is defined as a subject who is categorized as “very much improved” or “much improved” on the CGI Improvement scale. […] A notable difference between the 30 mg bifeprunox group and placebo was seen (p=0.039).

[2] = test system: adult subjects with schizophrenia; assay: CGI Improvement score, Clinical Study Two; details: LOCF
Procedure: (§2) Rating scale assessments were performed weekly, except for week 5, to measure the change from baseline to endpoint of the PANSS total score. Other assessments included: PANSS positive symptom subscale score, PANSS negative symptom subscale score, PANSS general pschopathology subscale score, BPRS total score, BPRS psychosis score, the CGI-S score, the CGI-I score, responder rates based on the PANSS total score, and the Calgary Depression Scale for Schizophrenia (CDSS). […]
as §1

[3] = test system: adult subjects with schizophrenia; assay: PANSS general psychopathology subscale score, Clinical Study Two; details: for Change from Baseline in General Psychopathology Subscale Score, Mean (SD) / Change from Baseline in General Psychopathology Subscale Score, Median / Trt Effect (bifeprunox - placebo), General Psychopathology Subscale Score / mean change (SD) from Baseline to Endpoint in PANSS general psychopathology subscale score: LOCF; for Change from Baseline in General Psychopathology Subscale Score, Mean (SD) / Change from Baseline in General Psychopathology Subscale Score, Median / Trt Effect (bifeprunox - placebo), General Psychopathology Subscale Score: ITT population; for Trt Effect (bifeprunox - placebo), General Psychopathology Subscale Score: ANCOVA; for PANSS general psychopathology subscale score, treatment effect (bifeprunox—placebo): Endpoint LOCF; for mean change (SD) from Baseline to Endpoint in PANSS general psychopathology subscale score: ITT
Procedure: as §2, §1

[4] = Bifeprunox 30 mg, Week 6/Endpoint
[5] = Bifeprunox 40 mg, Week 6/Endpoint

Structure (SMILES): O=c1[nH]c2cccc(N3CCN(Cc4cccc(-c5ccccc5)c4)CC3)c2o1 [Bifeprunox, 7-[4-([1,1′-biphenyl]-3-ylmethyl)-1-piperazinyl]-2(3H)-benzoxazolone]
- CGI-I responder rate (subjects much or very much improved) at Endpoint [1]: 28%
- CGI Improvement Minimally Improved, % ([2]; 30 mg, Week 2): (33%)
- CGI Improvement Minimally Worse, % ([2]; 30 mg, Week 2): (8%)
- CGI Improvement Much Improved, % ([2]; 30 mg, Week 2): (29%)
- CGI Improvement Much Worse, % ([2]; 30 mg, Week 2): (3%)
- CGI Improvement No Change, % ([2]; 30 mg, Week 2): (24%)
- CGI Improvement Very Much Improved, % ([2]; 30 mg, Week 2): (3%)
- CGI Improvement Very Much Worse, % ([2]; 30 mg, Week 2): (<1%)
- CGI Improvement Minimally Improved, % ([2]; 30 mg, Week 3): (28%)
- CGI Improvement Minimally Worse, % ([2]; 30 mg, Week 3): (7%)
- CGI Improvement Much Improved, % ([2]; 30 mg, Week 3): (27%)
- CGI Improvement Much Worse, % ([2]; 30 mg, Week 3): (4%)
- CGI Improvement No Change, % ([2]; 30 mg, Week 3): (26%)
- CGI Improvement Very Much Improved, % ([2]; 30 mg, Week 3): (6%)
- CGI Improvement Very Much Worse, % ([2]; 30 mg, Week 3): (<1%)
- CGI Improvement Minimally Improved, % ([2]; 30 mg, Week 4): (26%)
- CGI Improvement Minimally Worse, % ([2]; 30 mg, Week 4): (9%)
- CGI Improvement Much Improved, % ([2]; 30 mg, Week 4): (26%)
- CGI Improvement Much Worse, % ([2]; 30 mg, Week 4): (4%)
- CGI Improvement No Change, % ([2]; 30 mg, Week 4): (24%)
- CGI Improvement Very Much Improved, % ([2]; 30 mg, Week 4): (9%)
- CGI Improvement Very Much Worse, % ([2]; 30 mg, Week 4): (<1%)
- CGI Improvement Minimally Improved, % ([2]; 30 mg, Week 6/Endpoint): (21%)
- CGI Improvement Minimally Worse, % ([2]; 30 mg, Week 6/Endpoint): (11%)
- CGI Improvement Much Improved, % ([2]; 30 mg, Week 6/Endpoint): (28%)
- CGI Improvement Much Worse, % ([2]; 30 mg, Week 6/Endpoint): (6%)
- CGI Improvement No Change, % ([2]; 30 mg, Week 6/Endpoint): (24%)
- CGI Improvement Very Much Improved, % ([2]; 30 mg, Week 6/Endpoint): (9%)
- CGI Improvement Very Much Worse, % ([2]; 30 mg, Week 6/Endpoint): (<1%)
- CGI Improvement Minimally Improved, % ([2]; 40 mg, Week 2): (37%)
- CGI Improvement Minimally Worse, % ([2]; 40 mg, Week 2): (7%)
- CGI Improvement Much Improved, % ([2]; 40 mg, Week 2): (19%)
- CGI Improvement Much Worse, % ([2]; 40 mg, Week 2): (11%)
- CGI Improvement No Change, % ([2]; 40 mg, Week 2): (22%)
- CGI Improvement Very Much Improved, % ([2]; 40 mg, Week 2): (4%.)
- CGI Improvement Minimally Improved, % ([2]; 40 mg, Week 3): (30%)
- CGI Improvement Minimally Worse, % ([2]; 40 mg, Week 3): (6%)
- CGI Improvement Much Improved, % ([2]; 40 mg, Week 3): (21%)
- CGI Improvement Much Worse, % ([2]; 40 mg, Week 3): (14%)
- CGI Improvement No Change, % ([2]; 40 mg, Week 3): (23%)
- CGI Improvement Very Much Improved, % ([2]; 40 mg, Week 3): (5%)
- CGI Improvement Minimally Improved, % ([2]; 40 mg, Week 4): (29%)
- CGI Improvement Minimally Worse, % ([2]; 40 mg, Week 4): (9%)
- CGI Improvement Much Improved, % ([2]; 40 mg, Week 4): (20%)
- CGI Improvement Much Worse, % ([2]; 40 mg, Week 4): (14%)
- CGI Improvement No Change, % ([2]; 40 mg, Week 4): (21%)
- CGI Improvement Very Much Improved, % ([2]; 40 mg, Week 4): (7%)
- CGI Improvement Minimally Improved, % ([2]; 40 mg, Week 6/Endpoint): (26%)
- CGI Improvement Minimally Worse, % ([2]; 40 mg, Week 6/Endpoint): (11%)
- CGI Improvement Much Improved, % ([2]; 40 mg, Week 6/Endpoint): (19%)
- CGI Improvement Much Worse, % ([2]; 40 mg, Week 6/Endpoint): (15%)
- CGI Improvement No Change, % ([2]; 40 mg, Week 6/Endpoint): (20%)
- CGI Improvement Very Much Improved, % ([2]; 40 mg, Week 6/Endpoint): (9%)
- Change from Baseline in General Psychopathology Subscale Score, Mean (SD) ([3]; Bifeprunox 30 mg, Week 1): −2.7 (6.4)
- Change from Baseline in General Psychopathology Subscale Score, Median ([3]; Bifeprunox 30 mg, Week 1): −2
- Change from Baseline in General Psychopathology Subscale Score, Mean (SD) ([3]; Bifeprunox 30 mg, Week 2): −4.9 (8.1)
- Change from Baseline in General Psychopathology Subscale Score, Median ([3]; Bifeprunox 30 mg, Week 2): −4
- Change from Baseline in General Psychopathology Subscale Score, Mean (SD) ([3]; Bifeprunox 30 mg, Week 3): −5.8 (9.2)
- Change from Baseline in General Psychopathology Subscale Score, Median ([3]; Bifeprunox 30 mg, Week 3): −5
- Change from Baseline in General Psychopathology Subscale Score, Mean (SD) ([3]; Bifeprunox 30 mg, Week 4): −6.1 (9.7)
- Change from Baseline in General Psychopathology Subscale Score, Median ([3]; Bifeprunox 30 mg, Week 4): −5
- Change from Baseline in General Psychopathology Subscale Score, Mean (SD) [3, 4]: −6.0 (10.2)
- Change from Baseline in General Psychopathology Subscale Score, Median [3, 4]: −5
- Trt Effect (bifeprunox - placebo), General Psychopathology Subscale Score [3, 4]: −2.5
- Change from Baseline in General Psychopathology Subscale Score, Mean (SD) ([3]; Bifeprunox 40 mg, Week 1): −2.7 (5.9)
- Change from Baseline in General Psychopathology Subscale Score, Median ([3]; Bifeprunox 40 mg, Week 1): −2
- Change from Baseline in General Psychopathology Subscale Score, Mean (SD) ([3]; Bifeprunox 40 mg, Week 2): −3.4 (7.9)
- Change from Baseline in General Psychopathology Subscale Score, Median ([3]; Bifeprunox 40 mg, Week 2): −3
- Change from Baseline in General Psychopathology Subscale Score, Mean (SD) ([3]; Bifeprunox 40 mg, Week 3): −3.8 (8.8)
- Change from Baseline in General Psychopathology Subscale Score, Median ([3]; Bifeprunox 40 mg, Week 3): −3
- Change from Baseline in General Psychopathology Subscale Score, Mean (SD) ([3]; Bifeprunox 40 mg, Week 4): −3.4 (9.3)
- Change from Baseline in General Psychopathology Subscale Score, Median ([3]; Bifeprunox 40 mg, Week 4): −2
- Change from Baseline in General Psychopathology Subscale Score, Mean (SD) [3, 5]: −3.8 (10.1)
- Change from Baseline in General Psychopathology Subscale Score, Median [3, 5]: −3
- Trt Effect (bifeprunox - placebo), General Psychopathology Subscale Score [3, 5]: −0.7
- PANSS general psychopathology subscale score, treatment effect (bifeprunox—placebo) ([3]; bifeprunox 30 mg): −2.5
- mean change (SD) from Baseline to Endpoint in PANSS general psychopathology subscale score ([3]; bifeprunox 30 mg): −6.0 (10.2)
- PANSS general psychopathology subscale score, treatment effect (bifeprunox—placebo) ([3]; bifeprunox 40 mg): −0.7
- mean change (SD) from Baseline to Endpoint in PANSS general psychopathology subscale score ([3]; bifeprunox 40 mg): −3.8 (10.1)
